Numbered stars: 1 amine (or outer) side, 2 acyl side, 3 side chain; on linkers, the order of the positions; unused ones are H or OH. Bridge positions count the residues as written; N and C are the ends. Square brackets hold non-standard residues; d marks the D form. Peptide text beside a SMILES is read from it. * marks the point of attachment. hPhe(3,5-F2-4-CF3) = N[C@@H](CCc1cc(F)c(C(F)(F)F)c(F)c1)C(=O)O; hPhe(3-Cl-4-CF3) = N[C@@H](CCc1ccc(C(F)(F)F)c(Cl)c1)C(=O)O; NEtPhe(4-CF3) = CCN[C@@H](Cc1ccc(C(F)(F)F)cc1)C(=O)O; NMePhe(4-CF3) = CN[C@@H](Cc1ccc(C(F)(F)F)cc1)C(=O)O; hPhe(4-CF3) = N[C@@H](CCc1ccc(C(F)(F)F)cc1)C(=O)O; 3Oxa8azabicyclo(3.2.1)octane = C1CC2COCC1N2*; NMePhe(4-Cl) = CN[C@@H](Cc1ccc(Cl)cc1)C(=O)O; NMePhe(4-Me) = CN[C@@H](Cc1ccc(C)cc1)C(=O)O; NMePhe(4-I) = CN[C@@H](Cc1ccc(I)cc1)C(=O)O; NMedβ3hAla = C[C@H](CC(=O)[*:2])N(C)[*:1]; NMeAla(cPent) = CN[C@@H](CC1CCCC1)C(=O)O; NMeGly(cPent) = CN[C@H](C(=O)O)C1CCCC1; Phe(3-I) = N[C@@H](Cc1cccc(I)c1)C(=O)O; Pro(4,4-F2) = O=C(O)[C@@H]1CC(F)(F)CN1; X38 = CN1CCN(CCN(CC(=O)[*:2])[*:1])CC1; NMeCha = CN[C@@H](CC1CCCCC1)C(=O)O; NMehLeu = CN[C@@H](CCC(C)C)C(=O)O; Hyp = O=C(O)[C@@H]1C[C@@H](O)CN1; NMeChg = CN[C@H](C(=O)O)C1CCCCC1; NMeF = CN[C@@H](Cc1ccccc1)C(=O)O; NMeI = CC[C@H](C)[C@H](NC)C(=O)O; d(β3hL) = CC(C)C[C@@H](N)CC(=O)O; N(CH2CH2)2CF2 = FC1(F)CCN(*)CC1; NMeD = CN[C@@H](CC(=O)O)C(=O)O; NMeHpra = C#CCC[C@H](NC)C(=O)O; CH2CONHtBu = CC(C)(C)NC(=O)C*; NMeL = CN[C@@H](CC(C)C)C(=O)O; NMeV = CN[C@H](C(=O)O)C(C)C; d(β3hA) = C[C@@H](N)CC(=O)O; NMeS = CN[C@@H](CO)C(=O)O; NMeA = CN[C@@H](C)C(=O)O; NMeAib = CNC(C)(C)C(=O)O; Piperidide = C1CCN(*)CC1; dNMeA = CN[C@H](C)C(=O)O; Ac5c = NC1(C(=O)O)CCCC1; Aze = O=C(O)[C@@H]1CCN1; Ac4c = NC1(C(=O)O)CCC1; CH2CMe2OH = CC(C)(O)C*; Isopentyl = CC(C)CC*; NEtG = CCNCC(=O)O; Sar = CNCC(=O)O; Propyl = CCC*
biological target: protein-protein interaction between Kras and SOS1 (biotin-tagged human Kras loaded with GDP, His-tagged human SOS1) (Homo sapiens (Human), UniProt P01116, G12D); experiment: Protein-protein interaction inhibition between Kras and SOS1 (KrasG12D-SOS PPI) using AlphaScreen; type: biochemical; details: AlphaScreen; biotin-tagged human Kras loaded with GDP, His-tagged human SOS1; read-out: KRAS G12D-SOS PPI IC50;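 further: kras produced in E. coli, Ni-coupled donor beads and streptavidin acceptor beads, excitation 680 nm with emission detected at 520–620 nm via singlet oxygen transfer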

SMILES	IC50
CCCOC[C@H]1C(=O)N(C)CC(=O)N[C@@H](CCc2ccc(C(F)(F)F)c(Cl)c2)C(=O)N2CCC[C@H]2C(=O)NC2(CCCC2)C(=O)N(C)[C@@H](C2CCCC2)C(=O)N(C)[C@H](C(=O)N2C3CCC2COC3)CC(=O)N(C)[C@@H](CCC(C)C)C(=O)N[C@@H]([C@@H](C)CC)C(=O)N[C@@H](C)C(=O)N2CC[C@H]2C(=O)N1C [Compound 1326] ([NMehLeu]IA[Aze][NMeS](Propyl)[Sar][hPhe(3-Cl-4-CF3)]P[Ac5c][NMeGly(cPent)][NMeD]-{3Oxa8azabicyclo(3.2.1)octane}; lactam N-11)	0.0051 µM
CC[C@H](C)[C@@H]1NC(=O)[C@H](CC(C)C)N(C)C(=O)C[C@@H](C(=O)N2CCC(F)(F)CC2)N(C)C(=O)[C@H](CC(C)C)NC(=O)C(C)(C)N(C)C(=O)[C@H](Cc2ccc(OC)cc2)NC(=O)[C@H](Cc2cccc(I)c2)NC(=O)CN(C)C(=O)[C@H](Cc2ccc(C)cc2)N(C)C(=O)CN(C)C(=O)CN(C)C1=O [Compound 2101, (3S,9S,12S,18S,27S,30S,34S)-34-(4,4-difluoropiperidine-1-carbonyl)-12-[(3-iodophenyl)methyl]-3,30-diisobutyl-9-[(4-methoxyphenyl)methyl]-1,6,6,7,16,19,22,25,31-nonamethyl-27-[(1S)-1-methylpropyl]-18-(p-tolylmethyl)-1,4,7,10,13,16,19,22,25,28,31-undecazacyclotetratriacontane-2,5,8,11,14,17,20,23,26,29,32-undecone] ([NMeL]I[Sar][Sar][NMePhe(4-Me)][Sar][Phe(3-I)]Y(Me)[NMeAib]L[NMeD]-{N(CH2CH2)2CF2}; lactam N-11)	0.053 µM
CCO[C@@H]1C[C@H]2C(=O)NC3(CCCC3)C(=O)N(C)[C@@H]([C@@H](C)CC)C(=O)N(C)[C@H](C)CC(=O)N(C)[C@@H](CC(C)C)C(=O)N[C@@H]([C@@H](C)CC)C(=O)N(C)[C@@H](C)C(=O)N3CC[C@H]3C(=O)N(CC)[C@@H](Cc3ccc(C(F)(F)F)cc3)C(=O)N(C)CC(=O)N[C@@H](CCc3ccc(C(F)(F)F)c(Cl)c3)C(=O)N2C1 [Compound 932] (cyclo([Ac5c][NMeI][NMedβ3hAla][NMeL]I[NMeA][Aze][NEtPhe(4-CF3)][Sar][hPhe(3-Cl-4-CF3)][Hyp](Et)))	0.0054 µM
CC[C@H](C)[C@@H]1NC(=O)[C@H](CC(C)C)N(C)C(=O)C[C@@H](C)NC(=O)[C@H](C2CCCC2)N(C)C(=O)C2(CCCC2)NC(=O)[C@@H]2CCCN2C(=O)[C@H](CCc2ccc(C(F)(F)F)c(Cl)c2)NC(=O)[C@@H](C)N(C)C(=O)[C@H](CC2CCCCC2)N(C)C(=O)[C@@H]2CCN2C(=O)CN(C)C1=O [Compound 1531] (cyclo([Ac5c][NMeGly(cPent)][d(β3hA)][NMeL]I[Sar][Aze][NMeCha][dNMeA][hPhe(3-Cl-4-CF3)]P))	0.23 µM
C#CCC[C@H]1C(=O)N[C@@H]([C@@H](C)CC)C(=O)N(C)[C@@H](C)C(=O)N2CC[C@H]2C(=O)N(C)[C@@H](Cc2ccc(I)cc2)C(=O)N(C)CC(=O)N[C@@H](CCc2ccc(C(F)(F)F)c(Cl)c2)C(=O)N2CCC[C@H]2C(=O)NC2(CCCC2)C(=O)N(C)[C@@H](C2CCCCC2)C(=O)N[C@H](C)CC(=O)N1C [Compound 971] (cyclo([Ac5c][NMeChg][d(β3hA)][NMeHpra]I[NMeA][Aze][NMePhe(4-I)][Sar][hPhe(3-Cl-4-CF3)]P))	0.016 µM
CC[C@H](C)[C@@H]1NC(=O)[C@H](CC(C)C)N(C)C(=O)C[C@@H](C(=O)N2CCCCC2)N(C)C(=O)[C@H](C(C)C)N(C)C(=O)C2(CCCC2)NC(=O)[C@@H]2CCCN2C(=O)[C@H](CCc2ccc(C(F)(F)F)c(Cl)c2)NC(=O)CN(C)C(=O)[C@H](CC2CCCCC2)N(C)C(=O)[C@@H]2CCN2C(=O)[C@H](C(C)C)N(C)C1=O [Compound 1592] ([NMeL]I[NMeV][Aze][NMeCha][Sar][hPhe(3-Cl-4-CF3)]P[Ac5c][NMeV][NMeD]-Piperidide; lactam N-11)	0.21 µM
CCO[C@@H]1C[C@H]2C(=O)NC3(CCC3)C(=O)N(C)[C@@H](C3CCCCC3)C(=O)N(C)[C@H](C)CC(=O)N(C)[C@@H](CC(C)C)C(=O)N[C@@H]([C@@H](C)CC)C(=O)N(C)[C@@H](C)C(=O)N3CC[C@H]3C(=O)N(CC)[C@@H](Cc3ccc(C(F)(F)F)cc3)C(=O)N(C)CC(=O)N[C@@H](CCc3ccc(C(F)(F)F)c(Cl)c3)C(=O)N2C1 [Compound 296] (cyclo([Ac4c][NMeChg][NMedβ3hAla][NMeL]I[NMeA][Aze][NEtPhe(4-CF3)][Sar][hPhe(3-Cl-4-CF3)][Hyp](Et)))	0.055 µM
CC[C@H](C)[C@@H]1NC(=O)[C@H](CC(C)C)N(C)C(=O)C[C@@H](C(=O)N2CCCCC2)N(C)C(=O)[C@H](C2CCCCC2)N(C)C(=O)C2(CCCC2)NC(=O)CN(CCN2CCN(C)CC2)C(=O)[C@H](CCc2ccc(C(F)(F)F)c(Cl)c2)NC(=O)CN(C)C(=O)[C@H](CC2CCCCC2)N(C)C(=O)CN(C)C(=O)CN(C)C1=O [Compound 2180, (11S,17S,26S,29S,33S,36S)-11-[2-[3-chloro-4-(trifluoromethyl)phenyl]ethyl]-36-cyclohexyl-17-(cyclohexylmethyl)-29-isobutyl-15,18,21,24,30,34,37-heptamethyl-9-[2-(4-methylpiperazin-1-yl)ethyl]-26-[(1S)-1-methylpropyl]-33-(piperidine-1-carbonyl)-6,9,12,15,18,21,24,27,30,34,37-undecazaspiro[4.33]octatriacontane-7,10,13,16,19,22,25,28,31,35,38-undecone] ([NMeL]I[Sar][Sar][NMeCha][Sar][hPhe(3-Cl-4-CF3)][X38][Ac5c][NMeChg][NMeD]-Piperidide; lactam N-11)	0.00093 µM
CCCOC[C@H]1C(=O)N(C)CC(=O)N[C@@H](CCc2ccc(C(F)(F)F)c(Cl)c2)C(=O)N2CCC[C@H]2C(=O)NC2(CCCC2)C(=O)N(C)[C@@H](C2CCCC2)C(=O)N(C)[C@H](C(=O)N2C3CCC2COC3)CC(=O)N(C)[C@@H](CC2CCCC2)C(=O)N[C@@H]([C@@H](C)CC)C(=O)N[C@@H](C)C(=O)N2CC[C@H]2C(=O)N1C [Compound 1359] ([NMeAla(cPent)]IA[Aze][NMeS](Propyl)[Sar][hPhe(3-Cl-4-CF3)]P[Ac5c][NMeGly(cPent)][NMeD]-{3Oxa8azabicyclo(3.2.1)octane}; lactam N-11)	0.0062 µM
CC[C@H](C)[C@@H]1NC(=O)[C@H](CC(C)C)N(C)C(=O)C[C@@H](C)NC(=O)[C@H](CC(C)C)N(C)C(=O)C2(CCCC2)NC(=O)[C@H](COCC(C)(C)O)N(C)C(=O)[C@H](CCc2ccc(C(F)(F)F)c(Cl)c2)NC(=O)CN(C)C(=O)[C@H](COCCC(C)C)N(C)C(=O)CN(C)C(=O)CN(CC)C1=O [Compound 1464] (cyclo([Ac5c][NMeL][d(β3hA)][NMeL]I[NEtG][Sar][NMeS](Isopentyl)[Sar][hPhe(3-Cl-4-CF3)][NMeS](CH2CMe2OH)))	0.19 µM
CC[C@H](C)[C@@H]1NC(=O)[C@H](C)N(C)C(=O)C[C@@H](CC(C)C)NC(=O)[C@H](C(C)C)N(C)C(=O)[C@H](Cc2ccccc2)N(C)C(=O)[C@H](CC(C)C)N(C)C(=O)[C@H](CCc2ccc(C(F)(F)F)cc2)NC(=O)CN(C)C(=O)[C@H](Cc2ccc(Cl)cc2)N(C)C(=O)CN(C)C(=O)CN(C)C1=O [Compound 972] (cyclo(I[Sar][Sar][NMePhe(4-Cl)][Sar][hPhe(4-CF3)][NMeL][NMeF][NMeV][d(β3hL)][NMeA]))	0.33 µM
CC[C@H](C)[C@@H]1NC(=O)[C@H](CC(C)C)N(C)C(=O)C[C@@H](C)NC(=O)[C@H](C2CCCC2)N(C)C(=O)C2(CCCC2)NC(=O)[C@@H]2CCCN2C(=O)[C@H](CCc2ccc(C(F)(F)F)c(Cl)c2)NC(=O)CN(C)C(=O)[C@H](Cc2ccc(C(F)(F)F)cc2)N(C)C(=O)[C@@H]2CCN2C(=O)CN(C)C1=O [Compound 1496] (cyclo([Ac5c][NMeGly(cPent)][d(β3hA)][NMeL]I[Sar][Aze][NMePhe(4-CF3)][Sar][hPhe(3-Cl-4-CF3)]P))	0.002 µM
CC[C@H](C)[C@@H]1NC(=O)[C@H](CC(C)C)N(C)C(=O)C[C@@H](C)NC(=O)[C@H](CC(C)C)N(C)C(=O)C2(CCCC2)NC(=O)[C@H](COCC(=O)NC(C)(C)C)N(C)C(=O)[C@H](CCc2ccc(C(F)(F)F)c(Cl)c2)NC(=O)CN(C)C(=O)[C@H](COCCC(C)C)N(C)C(=O)CN(C)C(=O)CN(C)C1=O [Compound 1492] (cyclo([Ac5c][NMeL][d(β3hA)][NMeL]I[Sar][Sar][NMeS](Isopentyl)[Sar][hPhe(3-Cl-4-CF3)][NMeS](CH2CONHtBu)))	0.24 µM
CC[C@H](C)[C@@H]1NC(=O)[C@H](CC(C)C)N(C)C(=O)C[C@@H](C)N(C)C(=O)[C@H](C2CCCCC2)N(C)C(=O)C2(CCC2)NC(=O)[C@@H]2CC(F)(F)CN2C(=O)[C@H](CCc2cc(F)c(C(F)(F)F)c(F)c2)NC(=O)CN(C)C(=O)[C@H](Cc2ccc(C(F)(F)F)cc2)N(CC)C(=O)[C@@H]2CCN2C(=O)[C@H](C)N(C)C1=O [Compound 377] (cyclo([Ac4c][NMeChg][NMedβ3hAla][NMeL]I[NMeA][Aze][NEtPhe(4-CF3)][Sar][hPhe(3,5-F2-4-CF3)][Pro(4,4-F2)]))	0.024 µM
CC[C@H](C)[C@@H]1NC(=O)[C@H](CC(C)C)N(C)C(=O)C[C@@H](C(=O)N2CCCCC2)N(C)C(=O)[C@H](C(C)C)N(C)C(=O)C2(CCCC2)NC(=O)[C@@H]2CCCN2C(=O)[C@H](CCc2ccc(C(F)(F)F)c(Cl)c2)NC(=O)CN(C)C(=O)[C@H](Cc2ccc(C)cc2)N(C)C(=O)[C@@H]2CCN2C(=O)[C@H](C)N(C)C1=O [Compound 1828] ([NMeL]I[NMeA][Aze][NMePhe(4-Me)][Sar][hPhe(3-Cl-4-CF3)]P[Ac5c][NMeV][NMeD]-Piperidide; lactam N-11)	0.0027 µM
CC[C@H](C)[C@@H]1NC(=O)[C@H](CC(C)C)N(C)C(=O)C[C@@H](C(=O)N2CCCCC2)N(C)C(=O)[C@H](C2CCCCC2)N(C)C(=O)C2(CCCC2)NC(=O)[C@@H]2CCCN2C(=O)[C@H](CCc2ccc(C(F)(F)F)c(Cl)c2)NC(=O)CN(C)C(=O)[C@H](Cc2ccc(C)cc2)N(C)C(=O)[C@@H]2CCN2C(=O)[C@H](C)N(C)C1=O [Compound 1795] ([NMeL]I[NMeA][Aze][NMePhe(4-Me)][Sar][hPhe(3-Cl-4-CF3)]P[Ac5c][NMeChg][NMeD]-Piperidide; lactam N-11)	0.00099 µM
